In patent publication US11377442B2, “Small molecule agonists and antagonists of NR2F6 activity” (ZANDER THERAPEUTICS, INC., priority 2016, dated 2022):
Where two headings read alike, the source gives them in different places.

Assays:
Type in all cases: cell-based
NR2F6 = target: T1, NR2F6 (Homo sapiens, UniProt P10588); assay: NR2F6 agonist screening, Firefly signal cmpd/DMSO
T1 construct: expressed in transfected cells; also transient transfection
T1 sequence (P10588 1-404): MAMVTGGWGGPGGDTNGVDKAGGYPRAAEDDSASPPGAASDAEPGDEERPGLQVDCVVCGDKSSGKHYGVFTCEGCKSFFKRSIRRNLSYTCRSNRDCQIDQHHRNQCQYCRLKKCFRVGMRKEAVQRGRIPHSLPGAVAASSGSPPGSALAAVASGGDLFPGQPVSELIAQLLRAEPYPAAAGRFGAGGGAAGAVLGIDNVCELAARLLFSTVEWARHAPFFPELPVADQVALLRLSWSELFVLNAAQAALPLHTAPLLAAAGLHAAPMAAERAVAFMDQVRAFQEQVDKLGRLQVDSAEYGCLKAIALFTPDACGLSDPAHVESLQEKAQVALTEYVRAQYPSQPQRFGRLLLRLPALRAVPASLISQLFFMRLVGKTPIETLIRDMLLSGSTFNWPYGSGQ

Renilla_ERa = assay: Renilla signal in ERα counterscreen (Renilla_ERa); conditions: for fold induction at 2 µM / fold induction at 10 µM / fold induction at 40 µM: read-out: Renilla ERalpha transient, cmpd/DMSO (mean)
Renilla = Renilla signal in NR2F6 agonist screening, cmpd/DMSO; conditions: for fold induction at 2 µM / fold induction at 10 µM / fold induction at 40 µM: Renilla, read-out: Renilla F4, cmpd/DMSO (mean)
ERα [1] = target: T2, ERα (Homo sapiens, UniProt P03372); assay: Counterscreening, Firefly signal with ERα transient transfection (Firefly_ERa); conditions: 10 uM
T2 construct: expressed in transfected cells
T2 sequence (P03372 1-595): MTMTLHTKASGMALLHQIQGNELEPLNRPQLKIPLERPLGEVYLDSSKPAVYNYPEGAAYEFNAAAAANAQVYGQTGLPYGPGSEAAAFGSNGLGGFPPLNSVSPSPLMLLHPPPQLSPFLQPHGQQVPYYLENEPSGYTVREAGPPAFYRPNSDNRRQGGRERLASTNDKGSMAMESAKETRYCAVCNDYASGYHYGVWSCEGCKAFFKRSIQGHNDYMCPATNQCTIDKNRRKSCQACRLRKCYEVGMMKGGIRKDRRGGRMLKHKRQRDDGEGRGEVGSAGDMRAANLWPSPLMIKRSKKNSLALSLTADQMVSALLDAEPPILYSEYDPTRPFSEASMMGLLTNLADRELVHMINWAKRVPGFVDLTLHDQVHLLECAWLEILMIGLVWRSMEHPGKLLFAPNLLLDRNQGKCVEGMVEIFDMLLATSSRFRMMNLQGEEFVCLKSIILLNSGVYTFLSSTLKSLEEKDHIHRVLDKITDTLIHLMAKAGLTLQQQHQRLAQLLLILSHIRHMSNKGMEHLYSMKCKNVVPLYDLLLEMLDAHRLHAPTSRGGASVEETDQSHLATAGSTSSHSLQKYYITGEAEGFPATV
Experimental: The methodology for screening candidate compounds as NR2F6 agonists was as follows: For primary screening, hit criteria was ACT %>DMSO control+5*SD (DSO control) at 10 μM, or any compound with S/B>2. For rescreening, hit criteria was ACT %>DMSO control+3*SD (DSO control) in each replicate at 10 μM. For counterscreening, hit criteria was mean ACT<DMSO control+3*SD (DMSO control) with ERα transient transfection in duplicate at 10 μM.

ERα [2] = target: T2, ERα; assay: as above

SMILES | Firefly F4, cmpd/DMSO (mean) (NR2F6; Table 15, 2 uM) | Firefly F4, cmpd/DMSO (mean) (NR2F6; Table 15, 10 uM) | Firefly F4, cmpd/DMSO (mean) (NR2F6; Table 15, 40 uM) | Firefly ERalpha transient, cmpd/DMSO (mean) (ERα [1]; Table 15) | Firefly ERalpha transient, cmpd/DMSO (mean) (ERα [2]; Table 15, 2 uM) | Firefly ERalpha transient, cmpd/DMSO (mean) (ERα [2]; Table 15, 40 uM) | Firefly F4, cmpd/DMSO (mean) (NR2F6; 2 uM, clone F4) | Firefly F4, cmpd/DMSO (mean) (NR2F6; 10 uM, clone F4) | Firefly F4, cmpd/DMSO (mean) (NR2F6; 40 uM, clone F4) | fold induction at 2 µM (Renilla_ERa; Table 15, 2 uM) | fold induction at 10 µM (Renilla_ERa; Table 15, 10 uM) | fold induction at 40 µM (Renilla_ERa; Table 15, 40 uM) | fold induction at 2 µM (Renilla; Table 15, 2 uM) | fold induction at 10 µM (Renilla; Table 15, 10 uM) | fold induction at 40 µM (Renilla; Table 15, 40 uM) | fold induction at 2 µM (Renilla_ERa; 2 uM) | fold induction at 10 µM (Renilla_ERa; 10 uM) | fold induction at 40 µM (Renilla_ERa; 40 uM) | fold induction at 2 µM (Renilla; 2 uM, clone F4) | fold induction at 10 µM (Renilla; 10 uM, clone F4) | further results
COc1cccc(-c2noc(Cn3ncc4ccccc4c3=O)n2)c1 [Compound Z6] | 1.4 | 1.4 | 1.1 | 2.2 | 2.0 | 1.1 | – | – | – | – | – | – | – | – | – | – | – | – | – | – | Renilla ERalpha transient, cmpd/DMSO (mean) (Renilla_ERa; Table 15, 2 uM): 1.1; Renilla ERalpha transient, cmpd/DMSO (mean) (Renilla_ERa; Table 15, 10 uM): 1.1; Renilla ERalpha transient, cmpd/DMSO (mean) (Renilla_ERa; Table 15, 40 uM): 0.9; Renilla F4, cmpd/DMSO (mean) (Renilla; Table 15, 2 uM): 1.1; Renilla F4, cmpd/DMSO (mean) (Renilla; Table 15, 10 uM): 1.1; Renilla F4, cmpd/DMSO (mean) (Renilla; Table 15, 40 uM): 0.9
COc1ccc(-c2noc(Cn3ncc4ccccc4c3=O)n2)cc1 [Compound Z7] | 0.9 | 1.2 | 1.0 | 2.0 | 1.3 | 1.5 | – | – | – | 1.1 | 1.1 | 1 | 1.3 | 1.1 | 1.1 | – | – | – | – | – | –
CS(=O)(=O)Nc1ccc([N+](=O)[O-])c2nonc12 [Compound Z13] | 1.0 | 0.9 | 1.6 | 1.7 | 1.2 | 1.1 | – | – | – | – | – | – | – | – | – | – | – | – | – | – | Renilla ERalpha transient, cmpd/DMSO (mean) (Renilla_ERa; Table 15, 2 uM): 0.8; Renilla ERalpha transient, cmpd/DMSO (mean) (Renilla_ERa; Table 15, 10 uM): 0.6; Renilla ERalpha transient, cmpd/DMSO (mean) (Renilla_ERa; Table 15, 40 uM): 0.4; Renilla F4, cmpd/DMSO (mean) (Renilla; Table 15, 2 uM): 0.8; Renilla F4, cmpd/DMSO (mean) (Renilla; Table 15, 10 uM): 0.7; Renilla F4, cmpd/DMSO (mean) (Renilla; Table 15, 40 uM): 0.4
CCOC(=O)c1cnc2c(C)cc(C)cc2c1N1CCCC(N(C)C)C1 (stereo not drawn) [Compound Z27] | – | – | – | – | – | – | 1.3 | 1.3 | 0.7 | – | – | – | – | – | – | 1.2 | 1.2 | 0.8 | 1.2 | 1.2 | fold induction at 40 µM (Renilla; 40 uM, clone F4): 0.9; Firefly ERalpha transient, cmpd/DMSO (mean) (ERα [1]): 2.1; Firefly ERalpha transient, cmpd/DMSO (mean) (ERα [2]; 2 uM): 1.3; Firefly ERalpha transient, cmpd/DMSO (mean) (ERα [2]; 40 uM): 0.5
Cc1cc(C)c2ncc(C(=O)OC(C)C)c(NCCCN(C)C)c2c1 [Compound Z29] | – | – | – | – | – | – | 1.3 | 1.1 | 1.1 | – | – | – | – | – | – | 0.8 | 1.2 | 0.7 | 0.8 | 0.9 | fold induction at 40 µM (Renilla; 40 uM, clone F4): 0.5; Firefly ERalpha transient, cmpd/DMSO (mean) (ERα [1]): 1.2; Firefly ERalpha transient, cmpd/DMSO (mean) (ERα [2]; 2 uM): 1.0; Firefly ERalpha transient, cmpd/DMSO (mean) (ERα [2]; 40 uM): 6.7
Cc1cc(C)c2ncc(C(=O)N(C)C)c(NCCCN(C)C)c2c1 [Compound Z31] | – | – | – | – | – | – | 0.8 | 0.9 | 1.1 | – | – | – | – | – | – | 1 | 1 | 1 | 1.1 | 1 | fold induction at 40 µM (Renilla; 40 uM, clone F4): 1; Firefly ERalpha transient, cmpd/DMSO (mean) (ERα [1]): 1.6; Firefly ERalpha transient, cmpd/DMSO (mean) (ERα [2]; 2 uM): 0.9; Firefly ERalpha transient, cmpd/DMSO (mean) (ERα [2]; 40 uM): 1.3
Cc1cc(C)c2ncc(C(=O)N3CCCC3)c(NCCCN(C)C)c2c1 [Compound Z32] | – | – | – | – | – | – | 1.8 | 0.9 | 1.5 | – | – | – | – | – | – | 1 | 1.1 | 0.8 | 1 | 1 | fold induction at 40 µM (Renilla; 40 uM, clone F4): 1.3; Firefly ERalpha transient, cmpd/DMSO (mean) (ERα [1]): 0.8; Firefly ERalpha transient, cmpd/DMSO (mean) (ERα [2]; 2 uM): 1.8; Firefly ERalpha transient, cmpd/DMSO (mean) (ERα [2]; 40 uM): 1.5

Continued, in another order:

Firefly F4, cmpd/DMSO (mean) (NR2F6; Table 15, 2 uM) | Firefly F4, cmpd/DMSO (mean) (NR2F6; Table 15, 10 uM) | Firefly F4, cmpd/DMSO (mean) (NR2F6; Table 15, 40 uM) | Firefly ERalpha transient, cmpd/DMSO (mean) (ERα [1]; Table 15) | Firefly ERalpha transient, cmpd/DMSO (mean) (ERα [2]; Table 15, 2 uM) | Firefly ERalpha transient, cmpd/DMSO (mean) (ERα [2]; Table 15, 40 uM) | Firefly F4, cmpd/DMSO (mean) (NR2F6; 2 uM, clone F4) | Firefly F4, cmpd/DMSO (mean) (NR2F6; 10 uM, clone F4) | Firefly F4, cmpd/DMSO (mean) (NR2F6; 40 uM, clone F4) | SMILES | fold induction at 2 µM (Renilla_ERa; Table 15, 2 uM) | fold induction at 10 µM (Renilla_ERa; Table 15, 10 uM) | fold induction at 40 µM (Renilla_ERa; Table 15, 40 uM) | fold induction at 2 µM (Renilla; Table 15, 2 uM) | fold induction at 10 µM (Renilla; Table 15, 10 uM) | fold induction at 40 µM (Renilla; Table 15, 40 uM) | fold induction at 2 µM (Renilla_ERa; 2 uM) | fold induction at 10 µM (Renilla_ERa; 10 uM) | fold induction at 40 µM (Renilla_ERa; 40 uM) | fold induction at 2 µM (Renilla; 2 uM, clone F4) | fold induction at 10 µM (Renilla; 10 uM, clone F4) | further results
1.5 | 1.1 | 1.6 | 2.6 | 2.2 | 1.7 | – | – | – | COc1cccc(-c2noc(Cn3nccc(Cl)c3=O)n2)c1 [Compound Z3] | 1.1 | 1 | 0.9 | 1.5 | 1.4 | 0.9 | – | – | – | – | – | –
1.5 | 1.2 | 0.8 | 1.4 | 1.5 | 0.8 | – | – | – | COc1cccc(-c2noc(Cn3ncc(Cl)cc3=O)n2)c1 [Compound Z4] | 1.2 | 1.1 | 0.8 | 1.1 | 1.6 | 1.4 | – | – | – | – | – | –
1.5 | 0.9 | 1.2 | 2.5 | 2.4 | 2.4 | – | – | – | COc1cccc(-c2noc(Cn3ncccc3=O)n2)c1 [Compound Z5] | 1 | 1 | 1 | 1 | 0.9 | 1.2 | – | – | – | – | – | –
1.2 | 0.8 | 1.2 | 1.2 | 1.0 | 1.0 | – | – | – | CC(=O)Nc1ccc(Br)c2nonc12 [Compound Z14] | 1.1 | 1.1 | 1 | 0.8 | 0.9 | 1 | – | – | – | – | – | –
1.0 | 0.5 | 0.9 | 1.1 | 0.9 | 1.1 | – | – | – | CC(=O)Nc1ccc(NS(C)(=O)=O)c2nonc12 [Compound Z15] | 1 | 1 | 0.9 | 0.8 | 1.1 | 1 | – | – | – | – | – | –
– | – | – | – | – | – | 1.0 | 0.9 | 1.3 | Cc1cc(C)c2ncc(C(=O)O)c(NCCCN(C)C)c2c1 [Compound Z28] | – | – | – | – | – | – | 1.1 | 1.3 | 1 | 1 | 1.2 | fold induction at 40 µM (Renilla; 40 uM, clone F4): 1.2; Firefly ERalpha transient, cmpd/DMSO (mean) (ERα [1]): 1.1; Firefly ERalpha transient, cmpd/DMSO (mean) (ERα [2]; 2 uM): 1.8; Firefly ERalpha transient, cmpd/DMSO (mean) (ERα [2]; 40 uM): 1.3
– | – | – | – | – | – | 1.4 | 1.1 | 1.2 | CNC(=O)c1cnc2c(C)cc(C)cc2c1NCCCN(C)C [Compound Z30] | – | – | – | – | – | – | 1.1 | 1.1 | 1.6 | 1.1 | 1.1 | fold induction at 40 µM (Renilla; 40 uM, clone F4): 0.7; Firefly ERalpha transient, cmpd/DMSO (mean) (ERα [1]): 1.1; Firefly ERalpha transient, cmpd/DMSO (mean) (ERα [2]; 2 uM): 1.4; Firefly ERalpha transient, cmpd/DMSO (mean) (ERα [2]; 40 uM): 1.4
